Blank lines part the entries; values can stand above or below the compound they belong to.
How the values were obtained:
[1] = system: hearts of TRPV1−/− mice; assay: Langendorff perfused heart, ischemia and reperfusion (I/R) with OLDA, TRPV1-null; design: species or system mouse
Experimental: (§1) The following measurements were made on the two types of heart tissue: left ventricular end-diastolic pressure (LVEDP), left ventricular developed pressure (LVDP), coronary flow (CF), and left ventricular (LV) peak positive rate of pressure change/rate of time change (+dP/dt) were evaluated after I/R.

[2] = system: WT and TRPV1−/− hearts; assay: OLDA-induced CGRP and SP release from hearts (radioimmunoassay); design: species or system mouse
[3] = system: hearts of WT mice; assay: Langendorff perfused heart, ischemia and reperfusion (I/R) with OLDA, wild type; design: species or system mouse; details: OLDA 1.5×10^−7M; WT
Experimental: as §1

[4] = biological target: transient receptor potential vanilloid type 1 (TRPV1) channel (Homo sapiens, UniProt Q8NER1); details: in vitro; cited from earlier work
Chain of transient receptor potential vanilloid type 1 (TRPV1) channel (Q8NER1 whole entry, species assumed): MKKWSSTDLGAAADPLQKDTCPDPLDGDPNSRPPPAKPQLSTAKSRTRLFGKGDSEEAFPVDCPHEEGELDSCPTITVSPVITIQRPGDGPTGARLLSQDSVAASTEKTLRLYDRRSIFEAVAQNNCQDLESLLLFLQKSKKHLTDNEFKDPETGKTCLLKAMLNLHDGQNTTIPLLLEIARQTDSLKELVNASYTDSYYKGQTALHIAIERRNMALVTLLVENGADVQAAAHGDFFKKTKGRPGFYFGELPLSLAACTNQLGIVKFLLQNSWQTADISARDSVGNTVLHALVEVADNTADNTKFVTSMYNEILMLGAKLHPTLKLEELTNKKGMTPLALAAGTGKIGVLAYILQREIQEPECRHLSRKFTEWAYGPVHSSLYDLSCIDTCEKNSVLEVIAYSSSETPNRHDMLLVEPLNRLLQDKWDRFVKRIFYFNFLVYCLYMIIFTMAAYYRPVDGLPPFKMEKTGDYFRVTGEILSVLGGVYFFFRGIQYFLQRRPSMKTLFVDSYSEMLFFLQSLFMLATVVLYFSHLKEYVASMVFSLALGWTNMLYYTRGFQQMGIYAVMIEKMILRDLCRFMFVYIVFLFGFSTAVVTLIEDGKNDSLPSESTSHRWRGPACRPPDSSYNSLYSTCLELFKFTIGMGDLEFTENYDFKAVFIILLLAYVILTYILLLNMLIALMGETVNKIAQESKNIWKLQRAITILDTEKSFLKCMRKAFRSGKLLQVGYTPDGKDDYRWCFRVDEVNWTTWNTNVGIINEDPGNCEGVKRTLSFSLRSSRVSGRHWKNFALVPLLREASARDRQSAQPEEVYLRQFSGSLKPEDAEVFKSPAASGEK

[5] = system: rats fed either a high or normal sodium diet; details: rat, in vivo; cited from earlier work
[6] = system: Wistar rats; assay: Neonatal capsaicin treatment plus NS or HS diet: blood pressure, 8-isoprostane, creatinine clearance; type: in vivo, rat
Experimental: (§2) Enhanced oxidative stress in kidneys of salt-sensitive hypertension: role of sensory nerves (Am J Physiol Heart Circ Physiol 291: H3136-H3143, 2006). To determine the mechanism(s) underlying enhanced oxidative stress in kidneys of salt-sensitive hypertension, neonatal Wistar rats were given vehicle or capsaicin (CAP, 50 mg/kg sc) on the first and second days of life. After being weaned, male rats were assigned into four groups and treated for 2 wk with the following: vehicle+a normal sodium diet (NS, 0.4%, CON-NS), vehicle+a high-sodium diet (HS, 4%, CON-HS), CAP+NS (CAP−NS), and CAP+HS (CAP−HS). […] Plasma and urinary 8-iso-prostaglandin F2alpha levels increased by approximately 40% in CON-HS and CAP−HS rats compared with their respective controls fed a NS diet (P≦0.05), and these parameters were higher in CAP−HS compared with CON-HS rats. Superoxide (O2—) levels in the renal cortex and medulla increased by approximately 45% in CAP−HS compared with CON-HS, CON-NS, and CAP−NS rats (P≦0.05).

[7] = system: Wistar rats fed a NS or HS diet for 10 days; assay: MAP responses to i.v. capsaicin with or without CAPZ in urethane-anesthetized rats; type: in vivo, rat; details: for decrease in MAP: in mmHg
Experimental: Surgical Preparation Rats were anesthetized with ketamine and xylazine (80 and 4 mg/kg intraperitoneally, respectively) for cannulation or with urethane (1.5 g/kg intraperitoneally) for capsaicin administration. The left jugular vein, carotid and femoral artery were cannulated under anesthesia for injection of drugs or monitoring of mean arterial pressure (MAP) and heart rate (HR).
Each dose of injection was separated by a 30-minute interval. To determine the specificity of capsaicin, CAPZ (3 mg/kg) was administered 10 minutes before capsaicin injection in a separate group.

[8] = system: renal cortex and medulla; assay: Neonatal capsaicin treatment plus NS or HS diet: renal superoxide, SOD and NAD(P)H oxidase subunits; design: species or system rat; details: for renal cortical Cu/Zn SOD activity / renal cortical Cu/Zn SOD protein expression / renal cortical Mn SOD activity / renal cortical Mn SOD protein expression / renal cortical O2— production / renal cortical gp91 phox protein expression / renal cortical p47phox protein expression / renal medullary Cu/Zn SOD activity / renal medullary Cu/Zn SOD protein expression / renal medullary Mn SOD activity / renal medullary Mn SOD protein expression / renal medullary O2— production / renal medullary p47phox protein expression: neonatal CAP
Experimental: as §2, with “(P≦0.05). […]” for “(P≦0.05).”

[9] = system: renal tissues; assay: Capsaicin-induced CGRP release from renal tissues; design: species or system rat; details: Cap-HS and Cap-NS vs Con-NS and Con-HS
Excerpt: N¼5,_P<0.05 versus vehicle, capsazepine plus capsaicin and capsazepine; †P<0.001 versus capsaicin of control rats with a normal sodium diet (Con-NS) and capsaicin of control rats with a high sodium diet (Con-HS). Vehicle; capsaicin; capsazepine and capsaicin; capsazepine.
To examine renal sensory nerve function, renal CGRP release after stimulation of the renal sensory nerves with capsaicin was examined.

[10] = system: rats; details: dose-dependent; abolished by TRPV1 blockade or ipsilateral renal denervation; cited from earlier work
[11] = CAP−HS compared with CON-HS, CON-NS, CAP−NS

SMILES: CCCCCCCC/C=C\CCCCCCCC(=O)NCCc1ccc(O)c(O)c1 [OLDA, N-oleoyl-dopamine]
- protective effect in TRPV1−/− hearts [1]: void
- LV peak positive dP/dt (+dP/dt) after I/R ([1]; OLDA 1.5×10^−7M, TRPV1−/−): 1967±299 mmHg/s
- coronary flow (CF) after I/R ([1]; OLDA 1.5×10^−7M, TRPV1−/−): 53±2%
- left ventricular developed pressure (LVDP) after I/R ([1]; OLDA 1.5×10^−7M, TRPV1−/−): 39.8±3.7 mmHg
- left ventricular end-diastolic pressure (LVEDP) after I/R ([1]; OLDA 1.5×10^−7M, TRPV1−/−): 29.9±3.5 mmHg
- CGRP and SP release in WT compared to TRPV1−/− hearts [2]: significantly higher
- LV peak positive dP/dt (+dP/dt) after I/R [3]: 3227±126 mmHg/s
- coronary flow (CF) after I/R [3]: 76±6%
- left ventricular developed pressure (LVDP) after I/R [3]: 61.3±3.8 mmHg
- left ventricular end-diastolic pressure (LVEDP) after I/R [3]: 10.1±0.6 mmHg
- potency relative to capsaicin [4]: at least 30 times

- increase in superoxide levels in renal cortex and medulla [8, 11]: approximately 45%
- renal cortical Cu/Zn SOD activity ([8]; HS): 74.6 9.6 mU/mg protein
- renal cortical Cu/Zn SOD protein expression ([8]; HS): 0.39 0.05 %-actin arbitrary units
- renal cortical Mn SOD activity ([8]; HS): 14.3 3.5 mU/mg protein
- renal cortical Mn SOD protein expression ([8]; HS): 0.10 0.01 %-actin arbitrary units
- renal cortical O2— production ([8]; HS): 3.53 0.46 nmol_min—1_mg dry wt—1
- renal cortical gp91 phox protein expression ([8]; HS): 0.21 0.03 arbitrary units
- renal cortical p47phox protein expression ([8]; HS): 0.07 0.01 arbitrary units
- renal medullary Cu/Zn SOD activity ([8]; HS): 101.7 11.6 mU/mg protein
- renal medullary Cu/Zn SOD protein expression ([8]; HS): 0.41 0.05 %-actin arbitrary units
- renal medullary Mn SOD activity ([8]; HS): 27.1 4.2 mU/mg protein
- renal medullary Mn SOD protein expression ([8]; HS): 0.13 0.02 %-actin arbitrary units
- renal medullary O2— production ([8]; HS): 2.32 0.29 nmol_min—1_mg dry wt—1
- renal medullary p47phox protein expression ([8]; HS): 0.1 0.01 arbitrary units
- renal cortical Cu/Zn SOD activity ([8]; NS): 54.8 7.6 mU/mg protein
- renal cortical Cu/Zn SOD protein expression ([8]; NS): 0.29 0.05 %-actin arbitrary units
- renal cortical Mn SOD activity ([8]; NS): 10.4 2.5 mU/mg protein
- renal cortical Mn SOD protein expression ([8]; NS): 0.07 0.01 %-actin arbitrary units
- renal cortical O2— production ([8]; NS): 2.35 0.55 nmol_min—1_mg dry wt—1
- renal cortical gp91 phox protein expression ([8]; NS): 0.17 0.03 arbitrary units
- renal cortical p47phox protein expression ([8]; NS): 0.05 0.01 arbitrary units
- renal medullary Cu/Zn SOD activity ([8]; NS): 67.0 7.6 mU/mg protein
- renal medullary Cu/Zn SOD protein expression ([8]; NS): 0.27 0.05 %-actin arbitrary units
- renal medullary Mn SOD activity ([8]; NS): 18.7 3.8 mU/mg protein
- renal medullary Mn SOD protein expression ([8]; NS): 0.09 0.02 %-actin arbitrary units
- renal medullary O2— production ([8]; NS): 1.43 0.40 nmol_min—1_mg dry wt—1
- renal medullary p47phox protein expression ([8]; NS): 0.07 0.01 arbitrary units
SMILES: COc1cc(CNC(=O)CCCC/C=C/C(C)C)ccc1O [capsaicin, (E)-N-(4-hydroxy-3-methoxybenzyl)-8-methylnon-6-enamide]
- MAP [5]: decrease in MAP
- plasma CGRP levels [5]: increase in plasma CGRP levels
- decrease in creatinine clearance [6, 11]: 45%
- increase in plasma and urinary 8-iso-prostaglandin F2alpha levels ([6]; CAP−HS compared with control fed a NS diet): approximately 40%
- plasma and urine 8-isoprostane levels ([6]; neonatal CAP, NS diet): did not increase
- decrease in MAP ([7]; CAP 10 μg/kg iv, HS): 11±2
- decrease in MAP ([7]; CAP 10 μg/kg iv, NS): 6±1
- decrease in MAP ([7]; CAP 30 μg/kg iv, HS): 21±3
- decrease in MAP ([7]; CAP 30 μg/kg iv, NS): 12 ±2
- decrease in MAP (depressor effect) ([7]; capsaicin 10 μg/kg iv, HS): 11±2 mmHg
- decrease in MAP (depressor effect) ([7]; capsaicin 10 μg/kg iv, NS): 6±1 mmHg
- decrease in MAP (depressor effect) ([7]; capsaicin 30 μg/kg iv, HS): 21±3 mmHg
- decrease in MAP (depressor effect) ([7]; capsaicin 30 μg/kg iv, NS): 12±2 mmHg
- renal CGRP release in response to 1 mmol/l capsaicin in capsaicin-pretreated vs control rats [9]: significantly lower
- Uflow and UNa [10]: Increases

Source: patent publication US20080051454A1, “Compositions and methods for transient receptor potential vanilloid (TRPV) channel mediated treatments” (The Board of Trustees Operating Michigan State University, priority 2006, published 2008)
